This passage reports EC50 and MIC results from patent US12173018B2, “Penicillin-binding protein inhibitors” (priority 2018, dated 2024).

Converted amounts (≈) assume the structure as drawn. Where a name gives a salt, the structure may show the parent alone. Read-outs that look alike come from different tables or passages of the source.

Assay [1] has as its target E. coli PBP1b (Escherichia coli (strain K12), UniProt P02919). The assay is described as follows: Radioligand competition binding assay with 14C-labeled boronic acid probe, PBP1b.
The test system of assay [2] is engineered strain of Escherichia coli harboring CTX-M15. The experiment in a line: microbe, parasite or virus in culture. In kind it is cell-based. The settings on record: Escherichia coli, read-out: Microbiological Activity (MIC in mg/L), E. coli DH5α/pLBII-CTX-M15, engineered strain producing CTX-M15.
The subject of assay [3] is E. coli DH5α empty pLBII vector control strain. The assay is described as follows: microbe, parasite or virus in culture. The following applies: Escherichia coli, read-out: Microbiological Activity (MIC in mg/L), E. coli DH5α/pLBII. In kind it is cell-based, Escherichia coli. As for the experimental part:
Briefly, cryo-preserved bacterial cultures of challenge strains are streaked for isolation on appropriate agar medium, in this case Mueller Hinton II agar. Following incubation to allow growth of the colonies, plates are sealed with parafilm and stored refrigerated for up to two weeks. For preparation of assay inoculum and to ensure low variability, at least 5 colonies are picked from the agar plates with an inoculating loop and aseptically transferred to a culture tube containing 3 mL of Mueller-Hinton Broth (supplemented with divalent cations to required levels based on Manufacturers' certification). The broth culture is grown for 3-5 hours at 37° C. with shaking at 200 rpm. Meanwhile, 2-fold serial dilutions of test compounds are conducted in a 96 well plate with a final volume of 75 μL per well at 2-fold the final desired concentration. After the dilution plates are set up the growing cultures are then diluted in a cuvette containing MH II broth and the optical density is measured at 600 nm. The Inoculum is diluted such that 75 μL of this culture in Mueller-Hinton Broth results in a starting bacterial concentration of 5×10^5 CFU/mL when added to the dilution plates. The plates are incubated for 16-20 hours at 37° C. The MIC values are read visually as the lowest concentration well with no bacterial growth.
To determine if test compounds were affected by CTX-M15, the most abundant extended spectrum […] in clinical settings worldwide, the inhibition of the growth of an engineered strain of Escherichia coli harboring CTX-M15 was tested. This strain was constructed by cloning the gene encoding CTX-M15 into the NdeI and BamHI restriction endonuclease sites of plasmid pLBII, placing the gene(s) under the control of the Lac promoter. The constructed expression plasmid for CTX-M15 was used to transform competent E. coli DH5α cells to make the engineered strain, including an empty pLBII vector control strain. The classic cell based broth microdilution MIC assay was employed as described above with the addition of control antibiotics, known to be degraded by β-lactamases (Ceftazidime, piperacillin and piperacillin+tazobactam).

The target in assay [4] is E. coli PBP3 (Escherichia coli (strain K12), UniProt P0AD68). The assay is described as follows: E. coli PBP3 Bocillin-FL fluorescence polarization competition binding assay. The gist of the method:
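Purified PBP (1.5 μM final) was combined with test compound (0–1000 μM) and Bocillin-FL (fluorescent penicillin V, 0.1 μM final) in 50 mM Hepes pH 8.0, 300 mM NaCl, 5% glycerol.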

E. coli PBP1b, sequence (P02919 whole entry): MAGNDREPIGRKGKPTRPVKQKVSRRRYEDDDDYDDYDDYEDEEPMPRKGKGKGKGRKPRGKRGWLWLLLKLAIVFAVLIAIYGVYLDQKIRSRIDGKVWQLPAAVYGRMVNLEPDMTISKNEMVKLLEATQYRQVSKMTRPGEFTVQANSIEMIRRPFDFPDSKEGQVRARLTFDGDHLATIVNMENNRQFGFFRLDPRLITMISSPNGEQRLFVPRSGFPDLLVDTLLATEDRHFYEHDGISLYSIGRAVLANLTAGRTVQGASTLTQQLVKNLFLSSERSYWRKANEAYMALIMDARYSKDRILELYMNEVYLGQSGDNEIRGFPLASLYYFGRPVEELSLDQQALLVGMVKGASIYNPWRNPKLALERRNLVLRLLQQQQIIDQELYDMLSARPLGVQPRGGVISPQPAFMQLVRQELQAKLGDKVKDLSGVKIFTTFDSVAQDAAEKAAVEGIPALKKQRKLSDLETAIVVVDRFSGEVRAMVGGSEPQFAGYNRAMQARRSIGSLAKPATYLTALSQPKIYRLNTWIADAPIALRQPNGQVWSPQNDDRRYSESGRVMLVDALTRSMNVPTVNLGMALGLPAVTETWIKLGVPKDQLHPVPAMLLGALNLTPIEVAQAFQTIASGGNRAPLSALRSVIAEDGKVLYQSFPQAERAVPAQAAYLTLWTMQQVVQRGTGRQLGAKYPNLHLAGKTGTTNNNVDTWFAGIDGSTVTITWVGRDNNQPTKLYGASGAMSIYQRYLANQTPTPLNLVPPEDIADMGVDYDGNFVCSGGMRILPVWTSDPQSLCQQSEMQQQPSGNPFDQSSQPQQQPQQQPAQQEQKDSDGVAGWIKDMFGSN
E. coli PBP3, sequence (P0AD68 whole entry): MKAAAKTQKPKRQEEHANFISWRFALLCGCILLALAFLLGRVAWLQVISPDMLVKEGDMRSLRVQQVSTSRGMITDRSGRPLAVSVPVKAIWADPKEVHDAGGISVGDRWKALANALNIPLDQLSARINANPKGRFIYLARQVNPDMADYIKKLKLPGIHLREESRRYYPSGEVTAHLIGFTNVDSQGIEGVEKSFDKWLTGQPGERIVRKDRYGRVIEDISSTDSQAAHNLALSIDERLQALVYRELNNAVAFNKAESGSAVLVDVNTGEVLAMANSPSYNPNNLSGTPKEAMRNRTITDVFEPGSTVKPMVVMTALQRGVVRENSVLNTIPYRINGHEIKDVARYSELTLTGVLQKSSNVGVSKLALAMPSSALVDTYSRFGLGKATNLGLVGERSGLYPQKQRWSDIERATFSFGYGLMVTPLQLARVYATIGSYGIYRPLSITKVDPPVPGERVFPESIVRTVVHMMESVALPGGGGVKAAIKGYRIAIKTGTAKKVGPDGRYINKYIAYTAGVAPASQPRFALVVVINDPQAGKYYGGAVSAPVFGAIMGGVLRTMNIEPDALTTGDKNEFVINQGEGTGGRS

In the case of `CCN1CCN(C(=O)N[C@H](CN)C(=O)N[C@H]2Cc3cccc(C(=O)O)c3OB2O)C(=O)C1=O` [Example 11, (R)-3-((R)-3-amino-2-(4-ethyl-2,3-dioxopiperazine-1-carboxamido)propanamido)-2-hydroxy-3,4-dihydro-2H-benzo[e][1,2]oxaborinine-8-carboxylic acid, trifluoroacetic acid salt], in assay [1], the EC50 is < 10 µM. For the same molecule, the MIC in assay [2] and in assay [3] was 128 to 256 mg/L throughout.

As for `CCN1CCN(C(=O)N[C@H](CC(=O)O)C(=O)N[C@H]2Cc3cccc(C(=O)O)c3OB2O)C(=O)C1=O` [Example 23, (R)-3-((R)-3-carboxy-2-(4-ethyl-2,3-dioxopiperazine-1-carboxamido)propanamido)-2-hydroxy-3,4-dihydro-2H-benzo[e][1,2]oxaborinine-8-carboxylic acid], the EC50 is > 500 µM in assay [4] and > 100 µM in assay [1]. For the same molecule, the MIC in assay [2] and in assay [3] was > 512 mg/L throughout.

As for `CCN1CCN(C(=O)N[C@@H](CC(=O)O)C(=O)N[C@H]2Cc3cccc(C(=O)O)c3OB2O)C(=O)C1=O` [Example 24, (R)-3-((S)-3-carboxy-2-(4-ethyl-2,3-dioxopiperazine-1-carboxamido)propanamido)-2-hydroxy-3,4-dihydro-2H-benzo[e][1,2]oxaborinine-8-carboxylic acid], the EC50 in assay [4] is > 500 µM; in assay [1], > 100 µM. Moreover, the MIC in assay [2] and in assay [3] was > 512 mg/L throughout.

For `Nc1nc(C(NC(=O)c2cccc(O)c2O)C(=O)N[C@H]2Cc3cccc(C(=O)O)c3OB2O)cs1` (stereo partly drawn) [Example 25, (3R)-3-(2-(2-aminothiazol-4-yl)-2-(2,3-dihydroxybenzamido)acetamido)-2-hydroxy-3,4-dihydro-2H-benzo[e][1,2]oxaborinine-8-carboxylic acid], the EC50 in assay [1] is < 10 µM. Moreover, the MIC in assay [2] and in assay [3] was > 512 mg/L throughout.

For `CCN1CCN(C(=O)NC(C(=O)N[C@H]2Cc3cccc(C(=O)O)c3OB2O)c2cc(OC)c(O)c(OC)c2)C(=O)C1=O` (stereo partly drawn) [Example 29, (3R)-3-(2-(4-ethyl-2,3-dioxopiperazine-1-carboxamido)-2-(4-hydroxy-3,5-dimethoxyphenyl)acetamido)-2-hydroxy-3,4-dihydro-2H-benzo[e][1,2]oxaborinine-8-carboxylic acid], the EC50 in assay [4] (fluorescence polarization competition binding with Bocillin-FL, read-out: E. coli K12 PBP3 Potency) is > 500 µM; in assay [1], > 100 µM. Moreover, the MIC in assay [2] and in assay [3] was 128 to 256 mg/L (≈ 219 to 438 µM) in each case.

As to `CCN1CCN(C(=O)NC(C(=O)N[C@H]2Cc3cccc(C(=O)O)c3OB2O)c2cc(O)c(O)c(O)c2)C(=O)C1=O` (stereo partly drawn) [Example 31, (3R)-3-(2-(4-ethyl-2,3-dioxopiperazine-1-carboxamido)-2-(3,4,5-trihydroxyphenyl)acetamido)-2-hydroxy-3,4-dihydro-2H-benzo[e][1,2]oxaborinine-8-carboxylic acid], the results for the EC50 in assay [4] and in assay [1] were 30 to 500 µM and 10 to 100 µM, respectively. Also, the MIC in assay [2] and in assay [3] was > 512 mg/L each time.

`CCN1CCN(C(=O)NCC(NC(=O)N2CCN(CC)C(=O)C2=O)C(=O)N[C@H]2Cc3cccc(C(=O)O)c3OB2O)C(=O)C1=O` (stereo partly drawn) [Example 33, (3R)-3-(2,3-bis(4-ethyl-2,3-dioxopiperazine-1-carboxamido)propanamido)-2-hydroxy-3,4-dihydro-2H-benzo[e][1,2]oxaborinine-8-carboxylic acid]: the EC50 was > 500 µM in assay [4] and < 10 µM in assay [1]. The MIC in assay [2] and in assay [3] was > 512 mg/L each time.

`CCN1CCN(C(=O)NC(CNC(=O)c2ccc(O)c(O)c2)C(=O)N[C@H]2Cc3cccc(C(=O)O)c3OB2O)C(=O)C1=O` (stereo partly drawn) [Example 35, (3R)-3-(3-(3,4-dihydroxybenzamido)-2-(4-ethyl-2,3-dioxopiperazine-1-carboxamido)propanamido)-2-hydroxy-3,4-dihydro-2H-benzo[e][1,2]oxaborinine-8-carboxylic acid]: the values for the EC50 in assay [4] and in assay [1] were > 500 µM and < 10 µM, respectively. Moreover, the MIC in assay [2] and in assay [3] was > 512 mg/L throughout.
